Results published in patent US8450357B2, “Compositions comprising an aryl pyrazole and/or a formamidine, methods and uses thereof” (Merial Limited, priority 2008, dated 2013).

Key:
[1] = Crystal formation of amitraz formulations on storage or on the coat; format: physicochemical
Protocol: Solutions of amitraz in certain solvents at high concentration result in the appearance of crystals over time. […] The solubility of amitraz in butyl acetate is lower then in anisole, MIK and ethyl benzoate. […] Additionally, when amitraz (25%) in butyl acetate formulations were stored at 50° C. in a chamber, they evaporated slightly. […] Again, lowering concentration to 20% and addition of co-solvents with higher solubility of amitraz avoided crystallization of amitraz. Unexpectedly, this addition of co-solvents caused the effects described below in Example 9.

[2] = tested on: fleas (Ctenocephalides felis); assay: Study A: flea efficacy of Compound 1 spot-on formulations in dogs; format: in vivo
Protocol: An initial clinical study was conducted to test the efficacy of Compound 1 (3-cyano-1-(2-chloro-6-fluoro-4-trifluoromethylphenyl)-4-dichlorofluoromethylsulfinyl-5-methyl-1H-pyrazole) against ticks and fleas in various test formulations. Five test groups and an untreated control were evaluated. Each test group included six dogs. Compound was dissolved in a solvent or a combination of two or more solvents at 10% w/w. Test articles were formulated as topical spot-on solutions containing compound 1, 10% w/v in a solvent or a combination of solvents as described above. Dogs were infested with approximately 50 ticks (Rhipicephalus sanguineus) on days −1, 7, 14, 21, 28, 35 and 42. Dogs were also infested with approximately 100 fleas (Ctenocephalides felis) on days −1, 8, 15, 22, 29, 36, and 43. Treatment was applied by parting the hair and applying the formulation directly onto the skin on one spot at the midline of the neck, between the base of the skull and the shoulder blades. The dose rate of each of the topical solutions was 0.1 ml/kg (10 mg/kg) body weight. The efficacy of compound 1 in various formulations is shown Table 2 below.

[3] = tested on: ticks (Rhipicephalus sanguineus); assay: Study B: tick efficacy of Compound 1 spot-on formulations in dogs; format: in vivo
Excerpt: A separate clinical efficacy study in dogs was designed with an untreated control group and 5 test groups treated with compound 1. Each group had six dogs. Test articles were formulated as topical spot-on solutions containing compound 1, 10-20% w/v in a solvent or a combination of solvents as described above. Dogs were infested with approximately 50 ticks (Rhipicephalus sanguineus) on days −1, 7, 14, 21, 28, 35 and 42. Dogs were also infested with approximately 100 fleas (Ctenocephalides felis) on days −1, 8, 15, 22, 29, 36, and 43. Treatment was applied by parting the hair and applying the formulation directly onto the skin on one spot at the midline of the neck, between the base of the skull and the shoulder blades. […] […] It should be noted that Study A and Study B were conducted at different times and locations, and the results of each clinical study may differ from the other based on various environmental factors. Thus, the results of one clinical study should not be compared with those of another due to these factors.

**Q.** Which “crystals upon cooling to room temperature” value ([1]; amitraz (25%) in butyl acetate stored at 50° C. in a chamber) does the source give for `Cc1ccc(/N=C/N(C)/C=N/c2ccc(C)cc2C)c(C)c1` [Amitraz, amitraz] here?
**A.** The value was “precipitated crystals”.

**Q.** What about the “crystals on the coat of animals” value ([1]; amitraz (25%) in butyl acetate, clinical studies) of the same compound?
**A.** Its value is “produced white crystals”.

**Q.** Which results are given for `Cc1c([S+]([O-])C(F)(Cl)Cl)c(C#N)nn1-c1c(F)cc(C(F)(F)F)cc1Cl` (stereo not shown) [Compound 1, 3-cyano-1-(2-chloro-6-fluoro-4-trifluoromethylphenyl)-4-dichlorofluoromethylsulfinyl-5-methyl-1H-pyrazole]?
**A.** % Efficacy against fleas ([2]; Day 2, Trt. Group 2: 10 mg/kg in Butyl acetate/octyl acetate): 99.6%; % Efficacy against fleas ([2]; Day 2, Trt. Group 3: 10 mg/kg in Diethylene glycol monoethyl ether (transcutol)/N-methyl-2-pyrrolidone): 96.0%; % Efficacy against fleas ([2]; Day 2, Trt. Group 4: 10 mg/kg in Dipropylene glycol monomethyl ether/butyl acetate): 100%; % Efficacy against fleas ([2]; Day 2, Trt. Group 5: 10 mg/kg in Diisopropyl adipate): 100%; % Efficacy against fleas ([2]; Day 2, Trt. Group 6: 10 mg/kg in Triacetin): 98.0%; % Efficacy against fleas ([2]; Day 9, Trt. Group 2: 10 mg/kg in Butyl acetate/octyl acetate): 100%; % Efficacy against fleas ([2]; Day 9, Trt. Group 3: 10 mg/kg in Diethylene glycol monoethyl ether (transcutol)/N-methyl-2-pyrrolidone): 100%; % Efficacy against fleas ([2]; Day 9, Trt. Group 4: 10 mg/kg in Dipropylene glycol monomethyl ether/butyl acetate): 100%; % Efficacy against fleas ([2]; Day 9, Trt. Group 5: 10 mg/kg in Diisopropyl adipate): 100%; % Efficacy against fleas ([2]; Day 9, Trt. Group 6: 10 mg/kg in Triacetin): 100%; % Efficacy against fleas ([2]; Day 16, Trt. Group 2: 10 mg/kg in Butyl acetate/octyl acetate): 100%; % Efficacy against fleas ([2]; Day 16, Trt. Group 3: 10 mg/kg in Diethylene glycol monoethyl ether (transcutol)/N-methyl-2-pyrrolidone): 99.8%; % Efficacy against fleas ([2]; Day 16, Trt. Group 4: 10 mg/kg in Dipropylene glycol monomethyl ether/butyl acetate): 100%; % Efficacy against fleas ([2]; Day 16, Trt. Group 5: 10 mg/kg in Diisopropyl adipate): 100%; % Efficacy against fleas ([2]; Day 16, Trt. Group 6: 10 mg/kg in Triacetin): 100%; % Efficacy against fleas ([2]; Day 23, Trt. Group 2: 10 mg/kg in Butyl acetate/octyl acetate): 99.4%; % Efficacy against fleas ([2]; Day 23, Trt. Group 3: 10 mg/kg in Diethylene glycol monoethyl ether (transcutol)/N-methyl-2-pyrrolidone): 98.8%; % Efficacy against fleas ([2]; Day 23, Trt. Group 4: 10 mg/kg in Dipropylene glycol monomethyl ether/butyl acetate): 99.5%; % Efficacy against fleas ([2]; Day 23, Trt. Group 5: 10 mg/kg in Diisopropyl adipate): 100%; % Efficacy against fleas ([2]; Day 23, Trt. Group 6: 10 mg/kg in Triacetin): 100%; % Efficacy against fleas ([2]; Day 30, Trt. Group 2: 10 mg/kg in Butyl acetate/octyl acetate): 94.5%; % Efficacy against fleas ([2]; Day 30, Trt. Group 3: 10 mg/kg in Diethylene glycol monoethyl ether (transcutol)/N-methyl-2-pyrrolidone): 91.4%; % Efficacy against fleas ([2]; Day 30, Trt. Group 4: 10 mg/kg in Dipropylene glycol monomethyl ether/butyl acetate): 83.2%; % Efficacy against fleas ([2]; Day 30, Trt. Group 5: 10 mg/kg in Diisopropyl adipate): 92.9%; % Efficacy against fleas ([2]; Day 30, Trt. Group 6: 10 mg/kg in Triacetin): 99.7%; % Efficacy against fleas ([2]; Day 37, Trt. Group 2: 10 mg/kg in Butyl acetate/octyl acetate): 80.4%; % Efficacy against fleas ([2]; Day 37, Trt. Group 3: 10 mg/kg in Diethylene glycol monoethyl ether (transcutol)/N-methyl-2-pyrrolidone): 85.3%; % Efficacy against fleas ([2]; Day 37, Trt. Group 4: 10 mg/kg in Dipropylene glycol monomethyl ether/butyl acetate): 76.5%; % Efficacy against fleas ([2]; Day 37, Trt. Group 5: 10 mg/kg in Diisopropyl adipate): 69.1%; % Efficacy against fleas ([2]; Day 37, Trt. Group 6: 10 mg/kg in Triacetin): 98.9%; % Efficacy against fleas ([2]; Day 44, Trt. Group 2: 10 mg/kg in Butyl acetate/octyl acetate): 46.9%; % Efficacy against fleas ([2]; Day 44, Trt. Group 3: 10 mg/kg in Diethylene glycol monoethyl ether (transcutol)/N-methyl-2-pyrrolidone): 38.9%; % Efficacy against fleas ([2]; Day 44, Trt. Group 4: 10 mg/kg in Dipropylene glycol monomethyl ether/butyl acetate): 31.1%; % Efficacy against fleas ([2]; Day 44, Trt. Group 5: 10 mg/kg in Diisopropyl adipate): 40.3%; % Efficacy against fleas ([2]; Day 44, Trt. Group 6: 10 mg/kg in Triacetin): 93.0%; % Efficacy against ticks ([3]; Day 1, Trt. Group 2: 0.1 ml/kg (10 mg/kg) in Triacetin): 94.8%; % Efficacy against ticks ([3]; Day 1, Trt. Group 3: 0.2 ml/kg (20 mg/kg) in Triacetin): 93.9%; % Efficacy against ticks ([3]; Day 1, Trt. Group 4: 10 mg/kg in Diisopropyl adipate): 95.6%; % Efficacy against ticks ([3]; Day 1, Trt. Group 5: 10 mg/kg in Diethylene glycol monoethyl ether (transcutol)): 87.4%; % Efficacy against ticks ([3]; Day 1, Trt. Group 6: 10 mg/kg in Triacetin/diisopropyl adipate): 94.8%; % Efficacy against ticks ([3]; Day 2, Trt. Group 2: 0.1 ml/kg (10 mg/kg) in Triacetin): 99.6%; % Efficacy against ticks ([3]; Day 2, Trt. Group 3: 0.2 ml/kg (20 mg/kg) in Triacetin): 98.9%; % Efficacy against ticks ([3]; Day 2, Trt. Group 4: 10 mg/kg in Diisopropyl adipate): 98.9%; % Efficacy against ticks ([3]; Day 2, Trt. Group 5: 10 mg/kg in Diethylene glycol monoethyl ether (transcutol)): 98.5%; % Efficacy against ticks ([3]; Day 2, Trt. Group 6: 10 mg/kg in Triacetin/diisopropyl adipate): 99.6%; % Efficacy against ticks ([3]; Day 9, Trt. Group 2: 0.1 ml/kg (10 mg/kg) in Triacetin): 100%; % Efficacy against ticks ([3]; Day 9, Trt. Group 3: 0.2 ml/kg (20 mg/kg) in Triacetin): 100%; % Efficacy against ticks ([3]; Day 9, Trt. Group 4: 10 mg/kg in Diisopropyl adipate): 100%; % Efficacy against ticks ([3]; Day 9, Trt. Group 5: 10 mg/kg in Diethylene glycol monoethyl ether (transcutol)): 100%; % Efficacy against ticks ([3]; Day 9, Trt. Group 6: 10 mg/kg in Triacetin/diisopropyl adipate): 100%; % Efficacy against ticks ([3]; Day 16, Trt. Group 2: 0.1 ml/kg (10 mg/kg) in Triacetin): 100%; % Efficacy against ticks ([3]; Day 16, Trt. Group 3: 0.2 ml/kg (20 mg/kg) in Triacetin): 100%; % Efficacy against ticks ([3]; Day 16, Trt. Group 4: 10 mg/kg in Diisopropyl adipate): 100%; % Efficacy against ticks ([3]; Day 16, Trt. Group 5: 10 mg/kg in Diethylene glycol monoethyl ether (transcutol)): 100%; % Efficacy against ticks ([3]; Day 16, Trt. Group 6: 10 mg/kg in Triacetin/diisopropyl adipate): 100%; % Efficacy against ticks ([3]; Day 23, Trt. Group 2: 0.1 ml/kg (10 mg/kg) in Triacetin): 100%; % Efficacy against ticks ([3]; Day 23, Trt. Group 3: 0.2 ml/kg (20 mg/kg) in Triacetin): 100%; % Efficacy against ticks ([3]; Day 23, Trt. Group 4: 10 mg/kg in Diisopropyl adipate): 99.1%; % Efficacy against ticks ([3]; Day 23, Trt. Group 5: 10 mg/kg in Diethylene glycol monoethyl ether (transcutol)): 100%; % Efficacy against ticks ([3]; Day 23, Trt. Group 6: 10 mg/kg in Triacetin/diisopropyl adipate): 100%; % Efficacy against ticks ([3]; Day 30, Trt. Group 2: 0.1 ml/kg (10 mg/kg) in Triacetin): 98.8%; % Efficacy against ticks ([3]; Day 30, Trt. Group 3: 0.2 ml/kg (20 mg/kg) in Triacetin): 100%; % Efficacy against ticks ([3]; Day 30, Trt. Group 4: 10 mg/kg in Diisopropyl adipate): 99.1%; % Efficacy against ticks ([3]; Day 30, Trt. Group 5: 10 mg/kg in Diethylene glycol monoethyl ether (transcutol)): 98.8%; % Efficacy against ticks ([3]; Day 30, Trt. Group 6: 10 mg/kg in Triacetin/diisopropyl adipate): 98.8%; % Efficacy against ticks ([3]; Day 44, Trt. Group 2: 0.1 ml/kg (10 mg/kg) in Triacetin): 94.5%; % Efficacy against ticks ([3]; Day 44, Trt. Group 3: 0.2 ml/kg (20 mg/kg) in Triacetin): 99.4%; % Efficacy against ticks ([3]; Day 44, Trt. Group 4: 10 mg/kg in Diisopropyl adipate): 93.4%; % Efficacy against ticks ([3]; Day 44, Trt. Group 5: 10 mg/kg in Diethylene glycol monoethyl ether (transcutol)): 98.5%; % Efficacy against ticks ([3]; Day 44, Trt. Group 6: 10 mg/kg in Triacetin/diisopropyl adipate): 96.6%; % Efficacy against ticks ([3]; Day 51, Trt. Group 2: 0.1 ml/kg (10 mg/kg) in Triacetin): 90.8%; % Efficacy against ticks ([3]; Day 51, Trt. Group 3: 0.2 ml/kg (20 mg/kg) in Triacetin): 99.3%; % Efficacy against ticks ([3]; Day 51, Trt. Group 4: 10 mg/kg in Diisopropyl adipate): 87.9%; % Efficacy against ticks ([3]; Day 51, Trt. Group 5: 10 mg/kg in Diethylene glycol monoethyl ether (transcutol)): 98.9%; % Efficacy against ticks ([3]; Day 51, Trt. Group 6: 10 mg/kg in Triacetin/diisopropyl adipate): 91.6%; % Efficacy against ticks ([3]; Day 58, Trt. Group 2: 0.1 ml/kg (10 mg/kg) in Triacetin): 74.6%; % Efficacy against ticks ([3]; Day 58, Trt. Group 3: 0.2 ml/kg (20 mg/kg) in Triacetin): 97.6%; % Efficacy against ticks ([3]; Day 58, Trt. Group 4: 10 mg/kg in Diisopropyl adipate): 89.5%; % Efficacy against ticks ([3]; Day 58, Trt. Group 5: 10 mg/kg in Diethylene glycol monoethyl ether (transcutol)): 94.1%; % Efficacy against ticks ([3]; Day 58, Trt. Group 6: 10 mg/kg in Triacetin/diisopropyl adipate): 88.1%
